US20170189376A1, “BUTYROYLOXYMETHYL DIETHYL PHOSPHATE COMPOUNDS AND USES THEREOF” (MOR RESEARCH APPLICATIONS LTD., priority 2016, published 2017)

Experiments:
MyLa cells [1] = experiment: Alkaline comet assay, MyLa cells; format: cell-based, human; conditions: 96 h after treatment, relative to 24 h
Procedure: (§1) Comet assay using the Trevigen Comet assay kit (Trevigen Inc., Gaithersburg, Md., USA) was done according to the manufacturer's protocol. MyLa or Hut78 cells were treated with drugs, washed, incubated for interval time, washed in PBS, counted and suspended in PBS. 1 ×10^5 cells/ml were incubated with pre-heated low melting agarose for 20 min in 37° C., loaded on a comet-slide and kept in the dark for 30 min at 4° C., in cold lysis solution for another 20 min, and finally for 20 min with unwinding solution in RT. The slides were run with cold fresh alkaline electrophoresis buffer in the COMET-20 electrophoresis system (Scie-Plas, Harvard apparatus, UK) for 20 min in 21 volts, 4° C. Slides were stirred gently and washed twice in dH20 bath for 5 min and in 70% ethanol for 5 min. […] The cells were scored under fluorescence microscope (Nikon eclipse 55i, Tokyo, Japan) at a magnification ×10. Cell scores were analyzed using the software “Comet Assay IV” (perceptive instruments, UK). […] 24h after treating the cells the mean tail moment reaches its maximal level, therefore the percent of repaired damage was calculated as follows: (mean tail moment at 24h)−(mean tail moment at indicated time)/mean tail moment at 24 h. At least a total of 100 cells were measured per time-point. […]

Hut78 cells [2] = experiment: Alkaline comet assay, Hut78 cells; format: cell-based, homo sapiens; conditions: Hut78, 72 h after treatment, relative to 24 h
Procedure: as §1

[3] = test system: p-KAP1, γH2AX in MyLa cells; experiment: Western blot of p-KAP1 and γH2AX, MyLa cells; format: cell-based, human; conditions: 1 mM AN-7 2 h, 1 μM Dox 1 h, or AN-7 1 h followed with Dox 1 h
Procedure: Cell fraction—3×10^6cells were suspended in 100 μl hypotonic buffer (HEPES 10 mM, KCl 5 mM, MgCl2 1.5 mM, DTT 1 mM, NP-40 1%), incubated for 15 min in ice, centrifuged and the supernatant fraction was subjected to western blot of pKAP1 and actin. The sediment was washed once with hypotonic buffer followed by suspension in 100 μl of hypertonic buffer (HEPES 10 mM, NaCl 500 mM, MgCl2 1.5 mM, DTT 1 mM, NP-40 1%), incubated for 15 min in ice, centrifuged, supernatant was removed and the sediment was boiled, vortexed for 10 min at 95° C. with sample buffer ×3 for 3 times and subjected to western blot of γH2AX.
(§2) Whole cells extract—Cells were suspended in lysis buffer (Tris-HCl 50 mM, NaCl 150 mM, NP-40 0.5%), incubated for lh on ice, centrifuged and the supernatant was collected. Protease and Phosphatase inhibitors were added to all buffers at a 1:100 dilutions. […] Bands were visualized by Odyssey Infrared Imaging System and the bands intense were normalized to actin.
Next, cells were fractionated and fraction lysate were subjected to western blot of phosphorylated KAP1 (p-KAP1), γH2AX and actin.

[4] = test system: γH2AX foci in Hut78 cells; experiment: γH2AX nuclear foci immunofluorescence, Hut78 cells; format: cell-based, homo sapiens; conditions: Hut78, 24 h-72 h after treatment, relative to 3 h
Procedure: MyLa or Hut78 cells were treated with drugs, washed, incubated for interval time, and then 2×10^5cells/m1 were centrifuged with cyto-slides (CytoSlide, Shandon, Thermo, Ma, USA) in CYTOSPIN 4 (Shandon, Thermo scientific, West Palm Beach, USA) for 5 min 1000 rpm. Slides were washed with cold PBS on ice, pre-extracted with cold PBS-NP40-0.2% for 10 min, washed 3 times with cold PBS, fixed with 4% Paraformaldehyde for 10 min at RT, and washed 3 times with PBS. Slides were incubated with anti γ-H2AX, Bethyl A300-081A 1:1000, for 1.5 h in RT, washed twice in PBS-T (0.05% Tween in PBS) and once with PBS, incubated with Donkey anti rabbit IgG Alexa Fluor A-21206 1:700, for 30 min at RT, washed 3 times with PBS, dried gently, covered with 1 drop of Fluorescent mounting medium with DAPI (GBI-labs, WA, USA) and on top with cover glass. Slides were visualized in a light microscope (Olympus BX52, Tokyo, Japan). Foci analysis was performed using ImageJ software and PZfociEZ plugin. % of cells with >5 foci/cell was considered as damaged cells. % of repaired damage was calculated as follows: (% of cells with >5 foci/cell at 3 h)−(% of cells with >5 foci/cell at indicated time)/(% of cells with >5 foci/cell at 3 h). At least a total of 150 cells were measured per time-point.

[5] = test system: NBS1, Rad51, Mre11, DNA-PK, Ku70 in MyLa cells; experiment: Western blot of DSB repair proteins, MyLa cells; format: cell-based, human; conditions: 24 and 48 h post treatment
Procedure: as §2
(§3) To address whether AN-7 interfere in DSBs repair by regulating the expression of DSBs repair proteins, Immunoblot was applied for those proteins. MyLa and Hut78 cells were treated as previously described and subjected to western blot of DSBs repair proteins.

[6] = test system: NBS1, Rad51, Mre11, DNA-PK, Ku70 in Hut78 cells; experiment: Western blot of DSB repair proteins, Hut78 cells; format: cell-based, homo sapiens; conditions: Hut78, 18 and 24 h post treatment
Procedure: as §2, §3

MyLa cells [7] = experiment: MTT-based viability assay, MyLa cells; conditions: Homo sapiens, 72 h
Procedure: (§4) MyLa cells (10^4), Hut78 cells (5×10^3), SPBL and NPBL (10^5) were seeded in triplicate in 96-well plates. The PBL were activated with PHA 40 μg/10^6 cell for 24 h before the experiment. […] The cells were then placed in a humidified incubator for 72 h. […] The MTT reagent was added to a final concentration of 0.5 mg/mL, and the cells were incubated for an additional 4 h. Thereafter, 0.1N HCl in isopropanol was added, and cell viability was determined using an ELISA reader (PowerWaveX, BioTek, Winooski, Vt., USA) at a 570 nm wavelength with background subtraction at 630-690 nM.
(§5) Viability and apoptosis curves were based on the averages of at least 3 independent experiments. The standard error (SE) was calculated for each group as follows: SE=standard deviation/√n, where n is number of values in the group. […] Significant differences in selectivity among groups were analyzed by comparing the IC50 values using two-tailed unpaired t-test using Excel or by comparing the differential effects for all the dose response titrations using ANOVA with repeated measures.

Hut78 cells [8] = experiment: MTT-based viability assay, Hut78 cells; conditions: Homo sapiens, HuT78, 72 h, read-out: IC50 single treatment Dox
Procedure: as §4, §5

[9] = test system: Sezary syndrome Peripheral blood lymphocytes SPBL; experiment: MTT-based viability assay, Sezary PBL (SPBL); conditions: Homo sapiens, Lymphocyte, 72 h, read-out: IC50 single treatment Dox
Procedure: (§6) Peripheral blood was diluted 1:3 in sterile phosphate-buffered saline (PBS). Lymphoprep was added in the same blood volume with a Pasteur pipette, and the sample was centrifuged. PBL were collected from the white median interphase, rinsed twice with PBS, and suspended in RPMI medium with 10 mM HEPES to 2×10^6 cells/mL.
as §4, §5
(§7) NPBL were treated at same molar ratio as SPBL.

NPBL = experiment: MTT-based viability assay, normal PBL (NPBL)
Procedure: as §6, §4, §5, §7

MyLa cells [10] = experiment: cells; format: cell-based, human; conditions: Homo sapiens
[11] = test system: caspase 3, PARP, P21 and Bax in MF/SS cell lines; experiment: Western blot of pro-apoptotic proteins in MF/SS cell lines; format: cell-based, human; conditions: MyLa and Hut78, SAHA 10 μM or AN-7 300 μM
From the text: However, there was a stronger signal in response to SAHA.

HDAC1 = experiment: Western blot of HDAC1 protein expression in MF/SS cell lines; format: cell-based, human; conditions: MyLa and Hut78, SAHA 10 μM or AN-7 300 μM
Acetylated H3 = experiment: Western blot of acetylated H3 in nuclear lysate of MF/SS cell lines; conditions: MyLa and Hut78, SAHA 10 μM or AN-7 300 μM
Procedure: Cells (5×10^6) were suspended in 300 μL of cytoplasmic buffer (HEPES 10 mM, KCl 10 mM, EDTA 1 mM, EGTA 1 mM, DTT 1 mM). After 20 min of incubation on ice, the mixture was passed 5 times through a 25-G syringe and then centrifuged briefly to obtain the cytoplasmic supernatant.
The nuclear pellet was suspended in 40-60 μL of nuclear buffer (cytoplasmic buffer+10% glycerol), incubated with shaking at 4° C. for 15 min, and centrifuged. The supernatant was collected as a nuclear fraction.
Cell extracts were separated by SDS-polyacrylamide gel electrophoresis (SDS-PAGE), transferred to a nitrocellulose membrane, and subjected to immunoblot with primary and secondary antibodies, as listed in table 1.

MyLa cells [12] = experiment: FACS analysis with annexin V and PI staining (apoptosis), MyLa cells; conditions: SAHA 10 μM or AN-7 300 μM
Procedure: (§8) The cells (2.5×10^6 cells/mL) were washed in PBS and binding buffer and were resuspended in binding buffer, and of fluorescein isothiocyanate-conjugated annexin V (5 μL) was added to a 100 μL cell suspension for 10-15 min. Incubation was performed at room temperature under light-protected conditions. The cells were then washed in binding buffer and were resuspended in the binding buffer and propidium iodide (PI) (5 μL) was added. The samples were analyzed by flow cytometry (FACS Calibur 4.1.6, Becton Dickinson): fluorescein-labeled annexin V at a 530 nm wavelength, and PI at a 585 nm wavelength. The percentage of cells was calculated by their distribution in a fluorescence dot plot generated with FCS Express 4 software (De Novo Software, Los Angeles, Calif., USA). Early (annexin V-positive) and late (annexin V+PI-positive) apoptotic cells were summed to yield the total number of apoptotic cells.

Hut78 cells [13] = experiment: FACS analysis with annexin V and PI staining (apoptosis), Hut78 cells; conditions: Hut78; SAHA 10 μM or AN-7 300 μM
Procedure: as §8

Structure (SMILES): COc1cccc2c1C(=O)c1c(O)c3c(c(O)c1C2=O)C[C@@](O)(C(=O)CO)C[C@@H]3O[C@H]1C[C@H](N)[C@H](O)[C@H](C)O1 [Dox, doxorubicin, reference compound]
- damage repair (DNA breaks, mean tail moment) (MyLa cells [1]): about 72%
- repair of DNA breaks (mean tail moment) (Hut78 cells [2]): about 50%
- induction and clearance of p-KAP1 [3]: detected at 1-3 hours and declined after 24 hours
- induction and clearance of γH2AX [3]: clearance of γH2AX observed at 24 h
- percentage of repaired damage (γH2AX foci) [4]: 77.9%
- expression of NBS1, Mre11, Rad51 and DNA-PK [5]: did not affect the expression of DSB repair proteins
- expression of NBS1 and DNA-PK [6]: did not affect the expression of DSB repair proteins
- IC50 (MyLa cells [7]; read-out: IC50 single treatment Dox): 19 ± 1 nM
- IC50 (Hut78 cells [8]): 27 ± 2.6 nM
- IC50 [9]: 68.2 ± 10.8 nM
- IC50 (NPBL; Homo sapiens, 72 h, read-out: IC50 single treatment Dox): 399 ± 24.3 nM

Structure (SMILES): O=C(CCCCCCC(=O)Nc1ccccc1)NO [SAHA, Suberoylanilide hydroxamic acid, reference compound]
- IC50 (MyLa cells [10]; 24 h, read-out: IC50 Long exposure): 2300 ± 80 nM
- IC50 (MyLa cells [10]; read-out: IC50 Short exposure): 33000 ± 3700 nM
- expression of pro-apoptotic proteins (western blot) [11]: cleavage of caspase 3 and poly ADP-ribose polymerase (PARP) and the production of P21 and Bax
- HDAC1 expression level (HDAC1): downregulated
- IC50 (MyLa cells [7]; read-out: IC50 single treatment (HDACI)): 2200 ± 100 nM
- NPBL survival at high doses (NPBL; high doses lethal to Hut78 and MyLa cells): lethal to all cells
- expression of acetylated H3 (Acetylated H3): induced
- apoptosis (MyLa cells [12]): about 60%
- apoptosis (Hut78 cells [13]): about 60%
